Positions of bridges follow the written chain, without caps; N, C: chain ends. No end group written: not given here.
Columns and labels:
[1] = molecular target: A isoform of the insulin receptor (Homo sapiens, UniProt P06213); type: binding
Description: The receptor binding affinity of analogue 81-04 and analogue 4SS 81-04 was also determined. The affinity of 4SS 81-04 for the A isoform of the insulin receptor was determined to be 120±20 percent relative to human insulin (and may in fact be the same as wild type human insulin given the error present; data not shown). […] Such impaired binding to IGF-1R is desirable from the perspective of potential carcinogenesis on long-term use.

[2] = in vivo
[3] = tested on: Sprague-Dawley rats made diabetic with streptozotocin; test: Stability under extreme conditions (95° C. for 30 min, gentle agitation), read out as glucose lowering after IV bolus in diabetic rats; type: in vivo, rat
Description: Heat stressed insulin was given gentle agitation at 95° C. for 30 min. Doses for SCIs (nominally 1 IU/rat IV) were calculated in equivalent nanomoles protein/μl.
FIG. 3C is a graph of mean blood-glucose concentrations over time in Sprague-Dawley rats made diabetic with streptozotocin after IV bolus injection of fresh or heat-stressed SCIs on gentle agitation at 95° C. for 30 min (N=4; mean glycemia ca. 400 mg/dl). Symbol code: (filled triangle, ▴) fresh SCI-1; (open triangle, ? ) heated SCI-1; (filled square, ? ) fresh insulin lispro as positive control and (filled circle, ? ) Lilly diluent (i.e., buffer only) as negative control. Doses for SCIs (nominally 1 IU/rat IV) were calculated in equivalent nanomoles protein/μl.
FIG. 3D is a graph of the change in blood-glucose concentrations normalized to initial blood glucose concentration over time in Sprague-Dawley rats made diabetic with streptozotocin after IV bolus injection of fresh or heat-stressed SCIs on gentle agitation at 95° C. for 30 min (N=4; mean glycemia ca. 400 mg/dl). Symbol code: (filled triangle, ▴) fresh SCI-1; (open triangle, ? ) heated SCI-1; (filled square, ? ) fresh insulin lispro as positive control; and (filled circle, ? ) Lilly diluent (i.e., buffer only) as negative control. Doses for SCIs (nominally 1 IU/rat IV) were calculated in equivalent nanomoles protein/μl.
To evaluate the biological activity, potency, duration of signaling, and thermal stability of the analogues in an animal model, male Sprague-Dawley rats (mean body mass ˜300 grams) were rendered diabetic by treatment with streptozotocin (STZ). […] A control was provided by injection of protein-free Lilly diluent (obtained from Eli Lilly and Co.) composed of 16 mg glycerin, 1.6 mg meta-cresol, 0.65 mg phenol, and 3.8 mg sodium phosphate pH 7.4. The activity of SCI-1 was evaluated in relation to that of Humalog® (U-100 strength taken from an unexpired commercial vial). […] Blood was obtained from the clipped tip of the tail at time 0 and every 10 minutes up to 360 min. […]

Chain of A isoform of the insulin receptor (P06213 28-746 isoform P06213-2 limits assumed): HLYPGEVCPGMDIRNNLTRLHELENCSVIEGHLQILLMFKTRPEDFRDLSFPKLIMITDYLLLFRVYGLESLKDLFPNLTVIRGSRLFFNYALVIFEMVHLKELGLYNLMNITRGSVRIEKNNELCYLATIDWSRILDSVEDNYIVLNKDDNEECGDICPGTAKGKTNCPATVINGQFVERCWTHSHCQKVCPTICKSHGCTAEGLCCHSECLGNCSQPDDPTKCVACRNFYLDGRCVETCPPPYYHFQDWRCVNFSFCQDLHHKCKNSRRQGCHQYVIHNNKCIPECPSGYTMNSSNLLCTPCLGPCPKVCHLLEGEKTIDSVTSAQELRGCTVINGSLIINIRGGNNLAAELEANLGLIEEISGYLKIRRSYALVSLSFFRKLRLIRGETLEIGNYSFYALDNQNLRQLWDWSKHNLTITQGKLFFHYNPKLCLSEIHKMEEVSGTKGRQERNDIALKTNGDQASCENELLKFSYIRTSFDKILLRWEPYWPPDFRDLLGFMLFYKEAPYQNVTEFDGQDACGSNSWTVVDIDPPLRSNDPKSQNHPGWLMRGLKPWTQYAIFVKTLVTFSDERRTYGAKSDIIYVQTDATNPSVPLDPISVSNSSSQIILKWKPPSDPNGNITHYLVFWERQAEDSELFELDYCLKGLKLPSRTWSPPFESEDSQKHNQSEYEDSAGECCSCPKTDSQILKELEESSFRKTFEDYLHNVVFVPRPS
Chain of A isoform of the insulin receptor (P06213 763-1382 partner limits assumed): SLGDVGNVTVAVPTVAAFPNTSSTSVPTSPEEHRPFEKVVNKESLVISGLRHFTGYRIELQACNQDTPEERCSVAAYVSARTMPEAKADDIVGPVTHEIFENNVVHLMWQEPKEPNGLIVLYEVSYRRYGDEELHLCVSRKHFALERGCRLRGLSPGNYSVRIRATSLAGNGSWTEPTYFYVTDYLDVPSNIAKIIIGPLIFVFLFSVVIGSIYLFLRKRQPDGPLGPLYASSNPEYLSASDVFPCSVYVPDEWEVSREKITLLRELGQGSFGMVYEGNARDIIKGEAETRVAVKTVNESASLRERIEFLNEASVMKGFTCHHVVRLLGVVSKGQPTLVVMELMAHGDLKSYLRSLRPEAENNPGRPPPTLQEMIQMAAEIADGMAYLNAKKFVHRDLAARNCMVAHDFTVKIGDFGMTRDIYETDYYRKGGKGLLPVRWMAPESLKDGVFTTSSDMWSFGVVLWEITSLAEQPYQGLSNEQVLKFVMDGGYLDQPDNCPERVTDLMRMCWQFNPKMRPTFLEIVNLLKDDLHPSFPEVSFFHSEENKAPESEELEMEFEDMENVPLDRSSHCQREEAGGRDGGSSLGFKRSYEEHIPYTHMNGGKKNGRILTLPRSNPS

## FVNCHLCGSHLVEALYLVCGERGFFYTDPTEEGPRRGIVEQCCHSCCSLEQLENYCN (disulfide 4-46, 7-43, 19-56, 42-47) [SCI-2]
[1]
  affinity for the A isoform of the insulin receptor relative to human insulin: 120±20%

## FVNCHLCGSHLVEALYLVCGERGFFYTPRTEEGSRRSRGIVEQCCRSCCSLYQLENYCN (disulfide 4-48, 7-45, 19-58, 44-49) [SCI-1]
[2]
  PK on conventional SQ injection: prolonged PK

## SCI-1 without 4SS: Preliminary version of SCI-1 lacking the 4th disulfide bridge, with Gln at position B4 and Ile at position A10 (FVNQHLCGSHLVEALYLVCGERGFFYTDPTEEGPRRGIVEQCCHSICSLEQLENYCN; disulfide (positions not given here); ends not checked)
[3]; 95° C. for 30 min, time point 240 min
  decrement in activity of heated versus fresh sample at 240 min: ca. 25%
[3]; 95° C. for 30 min, time point 300 min
  decrement in activity of heated versus fresh sample at 300 min: ~40%
[3]; heat-stressed with gentle agitation at 95° C. for 30 min, nominally 1 IU/rat, N=4
  activity after 30 min at 95° C. versus fresh sample: largely (but incompletely) maintained
